Like-named read-outs stand apart in the source and are kept apart here.
Assays:
Type in all cases: cell-based
[1] = test system: Staphylococcus aureus X1.1; experiment: In vitro antibacterial activity, standard agar-dilution assay
[2] = test system: Staphylococcus aureus V41; experiment: as above
[3] = test system: Staphylococcus aureus X400; experiment: microbe, parasite or virus in culture
[4] = test system: Staphylococcus aureus S13E; experiment: microbe, parasite or virus in culture
[5] = test system: Staphylococcus epidermidis EPI1; experiment: In vitro antibacterial activity, standard agar-dilution assay
[6] = test system: Staphylococcus epidermidis 222; experiment: as above
[7] = test system: Streptococcus pyogenes C203; experiment: as above
[8] = test system: Streptococcus pneumoniae Park 1; experiment: as above; settings: PARK1
[9] = test system: Streptococcus faecium ATCC 9790; experiment: as above; settings: Enterococcus faecium, ATCC9790
[10] = test system: Streptococcus sp group D 2041; experiment: as above; settings: GROUPD2041
[11] = test system: Haemophilus influenzae C.L.; experiment: as above
[12] = test system: Haemophilus influenzae 76; experiment: as above
Escherichia coli N10 = experiment: as above
Escherichia coli EC14 = experiment: as above
Escherichia coli TEM = experiment: as above
[13] = test system: Klebsiella pneumoniae X26; experiment: as above
[14] = test system: Klebsiella pneumoniae X68; experiment: as above
[15] = test system: Klebsiella pneumoniae KAE; experiment: as above
Salmonella sp. X514 = experiment: as above
Shigella sonnei N9 = experiment: as above
Proteus morganii PR15 = experiment: as above; settings: Morganella morganii
[16] = test system: Acinetobacter calcoaceticus AC12; experiment: as above
Candida albicans = experiment: In vitro antifungal activity, standard disc-plate assay
[17] = test system: Trichophyton mentagrophytes; experiment: as above
[18] = Staphylococcus aureus X1.1, agar dilution, read-out: MIC
[19] = Staphylococcus aureus V41, agar dilution, read-out: MIC
[20] = Staphylococcus epidermidis EPI1, agar dilution, read-out: MIC
[21] = Staphylococcus epidermidis 222, agar dilution, read-out: MIC
[22] = Streptococcus pyogenes C203, agar dilution, read-out: MIC
[23] = Streptococcus pneumoniae Park 1, agar dilution, read-out: MIC
[24] = Streptococcus faecium ATCC 9790, agar dilution, read-out: MIC
[25] = Streptococcus sp group D 2041, agar dilution, read-out: MIC
[26] = Haemophilus influenzae C.L., agar dilution, read-out: MIC
[27] = Haemophilus influenzae 76, agar dilution, read-out: MIC
[28] = Escherichia coli N10, agar dilution, read-out: MIC
[29] = Escherichia coli EC14, agar dilution, read-out: MIC
[30] = Klebsiella pneumoniae X26, agar dilution, read-out: MIC
[31] = Klebsiella pneumoniae X68, agar dilution, read-out: MIC
[32] = Klebsiella pneumoniae KAE, agar dilution, read-out: MIC
[33] = Salmonella sp. X514, agar dilution, read-out: MIC
[34] = Shigella sonnei N9, agar dilution, read-out: MIC
[35] = Proteus morganii PR15, agar dilution, read-out: MIC
[36] = Acinetobacter calcoaceticus AC12, agar dilution, read-out: MIC
[37] = disc-plate assay, read-out: MIC

Measured: MIC

[C-]#[N+][C@@H]1[C@H]2c3c[nH]c4cccc(c34)C(C)(C)[C@H]2C[C@@H](Cl)[C@]1(C)C=C [Compound 1, hapalindole A]
16 µg/mL: [8]; [23] | [9]; [24] | [10]; [25]
4 µg/mL: [1]; [18] | [2]; [19] | [3] | [4] | [11]; [26] | [12]; [27] | Escherichia coli N10; [28] | Escherichia coli TEM | [13]; [30]
1.25 µg/mL: Candida albicans; [37] | [17]; [37]
2 µg/mL: [5]; [20] | [7]; [22] | [16]; [36]
0.06 µg/mL: [6]; [21]
8 µg/mL: Escherichia coli EC14; [29] | Salmonella sp. X514; [33] | Shigella sonnei N9; [34]
> 64 µg/mL: [14]; [31] | [15]; [32]
32 µg/mL: Proteus morganii PR15; [35]

[C-]#[N+][C@@H]1[C@H](c2c[nH]c3ccccc23)[C@@H](C(=C)C)CC[C@]1(C)C=C [Compound 3, Hapalindole C]
8 µg/mL: [4] | [5]; [20]
16 µg/mL: [1]; [18] | [2]; [19] | [3] | [6]; [21] | [11]; [26] | [12]; [27]
> 64 µg/mL: [7]; [22] | [8]; [23] | [9]; [24] | [10]; [25] | Escherichia coli N10; [28] | Escherichia coli EC14; [29] | [13]; [30] | [14]; [31] | [15]; [32] | Salmonella sp. X514; [33] | Shigella sonnei N9; [34] | Proteus morganii PR15; [35]
64 µg/mL: Escherichia coli TEM
2 µg/mL: [16]; [36]
0.625 µg/mL: Candida albicans; [37] | [17]; [37]

C=C[C@@]1(C)CC[C@H](C(=C)C)[C@@H](c2c[nH]c3ccccc23)[C@H]1N=C=S [Compound 4, Hapalindole D]
8 µg/mL: [3] | [5]; [20] | [9]; [24] | [10]; [25]
> 20 µg/mL: Candida albicans; [37] | [17]; [37]
> 64 µg/mL: [7]; [22] | [8]; [23] | [11]; [26] | [12]; [27] | Escherichia coli N10; [28] | Escherichia coli EC14; [29] | Escherichia coli TEM | [13]; [30] | [14]; [31] | [15]; [32] | Salmonella sp. X514; [33] | Shigella sonnei N9; [34] | Proteus morganii PR15; [35] | [16]; [36]
4 µg/mL: [1]; [18] | [2]; [19] | [4] | [6]; [21]

[C-]#[N+][C@@H]1[C@H]2c3c[nH]c4cccc(c34)C(C)(C)[C@@H]2CC[C@]1(C)C=C [Compound 8, Hapalindole H]
16 µg/mL: [16]; [36]
1.25 µg/mL: [17]; [37]
10 µg/mL: Candida albicans; [37]
> 64 µg/mL: [1]; [18] | [2]; [19] | [3] | [4] | [9]; [24] | [10]; [25] | [11]; [26] | [12]; [27] | Escherichia coli N10; [28] | Escherichia coli EC14; [29] | Escherichia coli TEM | [13]; [30] | [14]; [31] | [15]; [32] | Salmonella sp. X514; [33] | Shigella sonnei N9; [34] | Proteus morganii PR15; [35]
32 µg/mL: [5]; [20] | [6]; [21] | [7]; [22] | [8]; [23]

[C-]#[N+][C@@H]1[C@@H]2c3c[nH]c4cccc(c34)C(C)(C)[C@H]2C[C@@H](Cl)[C@]1(C)C=C [Compound 7, Hapalindole G]
> 64 µg/mL: [9]; [24] | [10]; [25] | Escherichia coli N10; [28] | Escherichia coli EC14; [29] | Escherichia coli TEM | [14]; [31] | [15]; [32] | Salmonella sp. X514; [33] | Shigella sonnei N9; [34] | Proteus morganii PR15; [35]
16 µg/mL: [6]; [21] | [7]; [22] | [8]; [23] | [16]; [36]
64 µg/mL: [1]; [18] | [2]; [19] | [3] | [4] | [11]; [26] | [12]; [27] | [13]; [30]
2.5 µg/mL: [17]; [37]
10 µg/mL: Candida albicans; [37]
8 µg/mL: [5]; [20]

C=C[C@@]1(C)[C@H](Cl)C[C@H]2[C@H](c3c[nH]c4cccc(c34)C2(C)C)[C@H]1N=C=S [Compound 2, Hapalindole B]
> 20 µg/mL: Candida albicans; [37] | [17]; [37]
2 µg/mL: [1]; [18] | [2]; [19] | [3] | [4] | [5]; [20] | [6]; [21]
8 µg/mL: [10]; [25]
> 64 µg/mL: [11]; [26] | [12]; [27] | Escherichia coli N10; [28] | Escherichia coli EC14; [29] | Escherichia coli TEM | [13]; [30] | [14]; [31] | [15]; [32] | Salmonella sp. X514; [33] | Shigella sonnei N9; [34] | Proteus morganii PR15; [35] | [16]; [36]
64 µg/mL: [7]; [22] | [8]; [23]
4 µg/mL: [9]; [24]

C=C[C@@]1(C)[C@H](Cl)C[C@H](C(=C)C)[C@@H](c2c[nH]c3ccccc23)[C@H]1N=C=S [Compound 6, Hapalindole F]
> 64 µg/mL: [2]; [19] | [7]; [22] | [8]; [23] | [11]; [26] | [12]; [27] | Escherichia coli N10; [28] | Escherichia coli EC14; [29] | Escherichia coli TEM | [13]; [30] | [14]; [31] | [15]; [32] | Salmonella sp. X514; [33] | Shigella sonnei N9; [34] | Proteus morganii PR15; [35] | [16]; [36]
16 µg/mL: [1]; [18] | [10]; [25]
> 20 µg/mL: Candida albicans; [37] | [17]; [37]
64 µg/mL: [9]; [24]
4 µg/mL: [5]; [20] | [6]; [21]
32 µg/mL: [3] | [4]

[C-]#[N+][C@@H]1[C@H](c2c[nH]c3ccccc23)[C@@H](C(=C)C)C[C@@H](Cl)[C@]1(C)C=C [Compound 5, Hapalindole E]
4 µg/mL: [1]; Staphylococcus aureus, X1.1 | [3] | [11]; Haemophilus influenzae | [12]; Haemophilus influenzae, 76
0.312 µg/mL: Candida albicans
32 µg/mL: Proteus morganii PR15; PR15
64 µg/mL: [9]
0.625 µg/mL: [17]
16 µg/mL: Escherichia coli N10; Escherichia coli, N10 | Escherichia coli EC14; Escherichia coli, EC14
2 µg/mL: [2]; Staphylococcus aureus, V41 | [4] | [5]; Staphylococcus epidermidis, EPI1 | [6]; Staphylococcus epidermidis, 222
> 64 µg/mL: [7]; Streptococcus pyogenes, C203 | [8]; Streptococcus pneumoniae | [10]; Streptococcus | Escherichia coli TEM | [13]; Klebsiella pneumoniae, X26 | [14]; Klebsiella pneumoniae, X68 | [15]; Klebsiella pneumoniae | Salmonella sp. X514; Salmonella, SP.X514 | Shigella sonnei N9; Shigella sonnei, N9 | [16]; Acinetobacter calcoaceticus, AC12

From patent US4755610A, “Hapalindoles” (priority 1986, dated 1988)
